# In US20120190752A1, “EXO-S-MECAMYLAMINE METHOD, USE, AND COMPOUND FOR TREATMENT” (Targacept Inc., priority 2009, published 2012):
# Tested on: subjects with major depressive disorder (MDD) who were inadequate responders to citalopram
# Experiment: MADRS total score, Phase 2b add-on trial
# Format: in vivo, human
# Text: The Montgomery-Asberg Depression Rating Scale (abbreviated MADRS) is a ten-item diagnostic questionnaire which psychiatrists may use to measure the severity of depressive episodes in patients with mood disorders (Montgomery et al. 1979). It was designed in 1979 by British and Swedish researchers as an adjunct to the Hamilton Rating Scale for Depression (HAMD) which would be more sensitive to the changes brought on by antidepressants and other forms of treatment than the HAMD. There is, however, a high degree of statistical correlation between scores on the two measures. In more detail, a multi-center double-blind, randomized, placebo-controlled, parallel group, flexible dose titration study of TC-5214 as adjunctive therapy in subjects with major depressive disorder (MDD) who were inadequate responders to citalopram was conducted in centers in the US and India. The study consisted of a screening period, baseline/washout period, open-label phase, double-blind phase, and a follow-up visit. Subject participation in the study could continue for up to 16 weeks of treatment. Following a washout period of up to 28 days for other antidepressants, subjects with MDD and a MADRS total score >/=28 and a Clinical Global Impression-Severity (CGI-S) score >/=4 were enrolled on Day 1 into an open-label citalopram-only phase of the study. This phase lasted 8 weeks, with citalopram (CIT) dose increased from a once-daily dose of 20 mg (Day 1 through Week 4) to 40 mg (Week 4 through Week 8). A total of 579 subjects entered the open-label citalopram phase. At Week 8, subjects who tolerated 40 mg CIT, but whose MADRS score was reduced <50% from baseline and no lower than 17, and CGI-S≧4, were considered inadequate responders. These subjects (n=270) were randomized in a double-blind fashion to receive either placebo or TC-5214-23 as add-on therapy to continued CIT. The double-blind phase of the study also lasted 8 weeks (Week 8 to Week 16). Study drug, TC-5214-23 or placebo, was started at 2 mg daily (1 mg twice per day [BID] dosing), added on to continuing CIT (40 mg PO qd). After 2 weeks of treatment, the dose of TC-5214 could be increased to 4 mg (2 mg BID) or continued unchanged, with up-titration based upon good tolerability and inadequate therapeutic response. After a further 2 weeks, the dose of TC-5214 could be increased again to 8 mg (4 mg BID) if judged appropriate by the investigator, based upon good tolerability and inadequate therapeutic response. At any time during the double-blind phase of the study, placebo or TC-5214-23 could be reduced to the previous dose level following the emergence of unacceptable adverse events (AEs). […] At this follow-up, any signs or symptoms of relapse were evaluated. If a subject was prematurely discontinued from the study between Week 8 and Week 16 for any reason, the investigator was to make every effort to perform all evaluations as per protocol, assuming the subject had reached the end of the double-blind add-on treatment phase. These evaluations were to be made as soon as possible and within 2 weeks of discontinuation. […] There was no meaningful difference in results as a function of age, gender, site, or smoking status. With regard to efficacy endpoints, the following tables present efficacy used in the ITT (Intent-to-Treat) and PP (Per Protocol) populations unless otherwise specific. The primary inference was based upon Week 16 visit using the ITT population. Change from baseline was obtained by subtracting the baseline values from the individual on-treatment values. Change from Week 16 was obtained by subtracting the Week 16 values from the individual follow-up visit (Week 18/19) values. If either the baseline or Week 16 or on-treatment or follow-up value was missing, the change from baseline or Week 16 value was also set to missing. […]
# [1] = ITT (N = 133), Double Blind Week 16
# [2] = ITT (N = 133), Double Blind Week 18 (Follow-up)
# [3] = ITT and PP populations, result in words
# [4] = ITT population, Week 8 (double-blind baseline) to Week 16
# [5] = ITT, Double Blind Week 18 LOCF (Follow-up), change from Week 16
# [6] = PP (N = 113), Double Blind Week 16
# [7] = PP (N = 113), Double Blind Week 18 (Follow-up)
# [8] = PP, Double Blind Week 16 LOCF (change from Week 8)
# [9] = PP, Double Blind Week 18 LOCF (Follow-up), change from Week 16
smiles,measurement,setting,value
"CNC1(C)C2CCC(C2)C1(C)C (stereo in doubt) [TC-5214, (S)—N,2,3,3-tetramethylnorbornan-2-amine]",MADRS reduction from baseline ≧50%: Subjects with Response (number),[1],89
same,MADRS reduction from baseline ≧50%: Subjects with Response (percentage),[1],(67%)
same,MADRS reduction from baseline ≧50%: Subjects without Response (number),[1],44
same,MADRS reduction from baseline ≧50%: Subjects without Response (percentage),[1],(33%)
same,MADRS ≦10: Subjects with Remission (number),[1],69
same,MADRS ≦10: Subjects with Remission (percentage),[1],(52%)
same,MADRS ≦10: Subjects without Remission (number),[1],64
same,MADRS ≦10: Subjects without Remission (percentage),[1],(48%)
same,MADRS ≦12: Subjects with Remission (number),[1],77
same,MADRS ≦12: Subjects with Remission (percentage),[1],(58%)
same,MADRS ≦12: Subjects without Remission (number),[1],56
same,MADRS ≦12: Subjects without Remission (percentage),[1],(42%)
same,MADRS reduction from baseline ≧50%: Subjects with Response (number),[2],94
same,MADRS reduction from baseline ≧50%: Subjects with Response (percentage),[2],(71%)
same,MADRS reduction from baseline ≧50%: Subjects without Response (number),[2],39
same,MADRS reduction from baseline ≧50%: Subjects without Response (percentage),[2],(29%)
same,MADRS ≦10: Subjects with Remission (number),[2],73
same,MADRS ≦10: Subjects with Remission (percentage),[2],(55%)
same,MADRS ≦10: Subjects without Remission (number),[2],60
same,MADRS ≦10: Subjects without Remission (percentage),[2],(45%)
same,MADRS ≦12: Subjects with Remission (number),[2],86
same,MADRS ≦12: Subjects with Remission (percentage),[2],(65%)
same,MADRS ≦12: Subjects without Remission (number),[2],47
same,MADRS ≦12: Subjects without Remission (percentage),[2],(35%)
same,MADRS remission (≦10 or ≦12) proportion compared with placebo,[3],higher proportion of subjects meeting the remission criteria
same,MADRS responders (reduction from baseline ≧50%) proportion compared with placebo,[3],higher proportion of responders
same,MADRS total score change from baseline compared with placebo,[3],statistically significant decreases (improvements)
same,MADRS Total Score: Adjusted Mean Change TC-5214—Placebo (SD),[4],−7.54 (10.13)
same,MADRS Total Score: Effect Size,[4],0.74
same,MADRS Mean Difference between TC-5214 and Placebo,"ITT, Double Blind Week 16 LOCF (change from Week 8)",7.54
same,MADRS Adjusted Mean change,[5],−0.87
same,MADRS Mean Difference between TC-5214 and Placebo,[5],−0.54
same,MADRS Difference vs Placebo + CIT,"ITT, Week 8 to Week 16 LOCF",−7.45
same,MADRS Adj. Mean change,"ITT, change from Week 8 (double-blind baseline) to Week 16 LOCF, add-on to citalopram",−17.26
same,MADRS reduction from baseline ≧50%: Subjects with Response (number),[6],84
same,MADRS reduction from baseline ≧50%: Subjects with Response (percentage),[6],(74%)
same,MADRS reduction from baseline ≧50%: Subjects without Response (number),[6],29
same,MADRS reduction from baseline ≧50%: Subjects without Response (percentage),[6],(26%)
same,MADRS ≦10: Subjects with Remission (number),[6],67
same,MADRS ≦10: Subjects with Remission (percentage),[6],(59%)
same,MADRS ≦10: Subjects without Remission (number),[6],46
same,MADRS ≦10: Subjects without Remission (percentage),[6],(41%)
same,MADRS ≦12: Subjects with Remission (number),[6],72
same,MADRS ≦12: Subjects with Remission (percentage),[6],(64%)
same,MADRS ≦12: Subjects without Remission (number),[6],41
same,MADRS ≦12: Subjects without Remission (percentage),[6],(36%)
same,MADRS reduction from baseline ≧50%: Subjects with Response (number),[7],89
same,MADRS reduction from baseline ≧50%: Subjects with Response (percentage),[7],(79%)
same,MADRS reduction from baseline ≧50%: Subjects without Response (number),[7],24
same,MADRS reduction from baseline ≧50%: Subjects without Response (percentage),[7],(21%)
same,MADRS ≦10: Subjects with Remission (number),[7],70
same,MADRS ≦10: Subjects with Remission (percentage),[7],(62%)
same,MADRS ≦10: Subjects without Remission (number),[7],43
same,MADRS ≦10: Subjects without Remission (percentage),[7],(38%)
same,MADRS ≦12: Subjects with Remission (number),[7],81
same,MADRS ≦12: Subjects with Remission (percentage),[7],(72%)
same,MADRS ≦12: Subjects without Remission (number),[7],32
same,MADRS ≦12: Subjects without Remission (percentage),[7],(28%)
same,MADRS Adjusted Mean change,[8],−19.34
same,MADRS Mean Difference between TC-5214 and Placebo,[8],7.97
same,MADRS Adjusted Mean change,[9],−1.10
same,MADRS Mean Difference between TC-5214 and Placebo,[9],−0.20
